Biological target: T1, PIK3CA_C242 (Homo sapiens, UniProt P42336)
T1 construct: endogenous in cells; host or cells: Jurkat cell lysate
Test: Proteomic TE50 (IA-DTB / TMT mass spectrometry) in Jurkat cell lysate
Format: binding
Conditions: 1 hour at rt, 7-point dose response
Experimental: Example 4. Proteomic TE50 In vitro TE50 values for PIK3CA_C242 were obtained by treating 500 μg of cell lysate generated from Jurkat cells with DMSO or compound for 1 hour at rt followed by the addition of 200 μM desthiobiotin polyethyleneoxide iodoacetamide (IA-DTB) in DMSO for one hour at rt. Compounds were serially diluted 1:5 for a total of 7 points in order to generate dose response curves. Samples were then precipitated by the addition of 8× ice cold acetone and incubated at -80° C. for two hours. Protein was then pelleted by centrifugation (4,200 RPM, 45 min, 4° C.). The pelleted material was resuspended in 9M urea, 50 mM ammonium bicarbonate and proteins were reduced and alkylated by the addition of DTT and iodoacetamide (10 and 30 mM, respectively). Following reduction and alkylation, samples were exchanged into 2M urea (Zeba spin desalting plates, Thermo Fisher) and digested with Trypsin. IA-DTB labeled peptides were isolated with streptavidin agarose resin. Enriched peptides were eluted by the addition of 50% acetonitrile (ACN) 0.1% formic acid (FA) and dried in a SpeedVac vacuum concentrator. […] Reactions were quenched by the addition of 6.5 μL of 5% hydroxylamine. Samples were then combined and desalted on a Evolute express ABN plate (Biotage, 600-0010-PX01). Targeted TMT measurements were collected using an Orbitrap Lumos Tribrid Mass Spectrometer (Thermo Scientific) coupled to an UltiMate 3000 Series Rapid Separation LC system and autosampler (Thermo Scientific Dionex). Peptides were eluted onto a custom C18 capillary analytical column (75-μm inner diameter fused silica, packed with Acclaim PepMap C18 resin; Thermo Scientific) using an Acclaim PepMap 100 (Thermo 164535) loading column, and separated at a flow rate of […]. Data were acquired using a specific MS3-based TMT method targeting the peptide containing […], +2 charge state) where MS2 peptide fragmentation is triggered upon detection of the peptide precursor ion. Subsequent MS3 analysis was then performed using pre-selected peptide fragment ions that were isolated for fragmentation using synchronous precursor selection. RAW files were converted to MZXML format and searched with the SEQUEST algorithm using the […] software package. TMT quantitation was performed with a filter requiring at least ten summed signal-to-noise (S/N) for control channels. TE50 values were calculated from 7-point dose response curves created using the reporter ion S/N for each channel.

T1 sequence (P42336 whole entry): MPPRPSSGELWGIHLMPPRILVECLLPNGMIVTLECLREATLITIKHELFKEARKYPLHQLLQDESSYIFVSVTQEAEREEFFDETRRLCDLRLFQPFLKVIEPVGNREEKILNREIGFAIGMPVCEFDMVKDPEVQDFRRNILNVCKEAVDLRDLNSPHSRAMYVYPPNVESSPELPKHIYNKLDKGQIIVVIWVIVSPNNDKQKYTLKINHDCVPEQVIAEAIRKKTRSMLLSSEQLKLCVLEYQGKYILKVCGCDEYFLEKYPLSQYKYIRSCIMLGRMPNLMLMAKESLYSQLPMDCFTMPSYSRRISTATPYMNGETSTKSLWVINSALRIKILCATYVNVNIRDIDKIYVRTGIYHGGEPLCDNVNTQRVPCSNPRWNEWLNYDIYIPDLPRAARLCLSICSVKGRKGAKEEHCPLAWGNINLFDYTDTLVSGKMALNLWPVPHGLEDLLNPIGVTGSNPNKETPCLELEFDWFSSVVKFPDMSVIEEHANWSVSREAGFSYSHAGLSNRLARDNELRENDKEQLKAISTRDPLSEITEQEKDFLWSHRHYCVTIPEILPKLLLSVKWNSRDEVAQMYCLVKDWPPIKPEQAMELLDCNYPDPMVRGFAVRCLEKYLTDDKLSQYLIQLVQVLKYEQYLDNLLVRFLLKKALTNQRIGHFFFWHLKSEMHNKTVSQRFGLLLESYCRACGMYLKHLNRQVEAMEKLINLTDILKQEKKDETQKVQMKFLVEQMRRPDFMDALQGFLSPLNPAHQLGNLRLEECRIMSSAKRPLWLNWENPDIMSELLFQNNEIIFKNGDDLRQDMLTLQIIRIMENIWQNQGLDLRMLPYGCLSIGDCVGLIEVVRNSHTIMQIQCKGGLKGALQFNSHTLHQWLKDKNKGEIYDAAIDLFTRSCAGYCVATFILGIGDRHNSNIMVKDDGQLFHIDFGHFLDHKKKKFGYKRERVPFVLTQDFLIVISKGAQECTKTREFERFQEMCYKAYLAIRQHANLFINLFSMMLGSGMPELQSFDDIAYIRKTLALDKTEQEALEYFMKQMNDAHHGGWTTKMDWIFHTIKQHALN
T1 sequence (P27986 whole entry partner): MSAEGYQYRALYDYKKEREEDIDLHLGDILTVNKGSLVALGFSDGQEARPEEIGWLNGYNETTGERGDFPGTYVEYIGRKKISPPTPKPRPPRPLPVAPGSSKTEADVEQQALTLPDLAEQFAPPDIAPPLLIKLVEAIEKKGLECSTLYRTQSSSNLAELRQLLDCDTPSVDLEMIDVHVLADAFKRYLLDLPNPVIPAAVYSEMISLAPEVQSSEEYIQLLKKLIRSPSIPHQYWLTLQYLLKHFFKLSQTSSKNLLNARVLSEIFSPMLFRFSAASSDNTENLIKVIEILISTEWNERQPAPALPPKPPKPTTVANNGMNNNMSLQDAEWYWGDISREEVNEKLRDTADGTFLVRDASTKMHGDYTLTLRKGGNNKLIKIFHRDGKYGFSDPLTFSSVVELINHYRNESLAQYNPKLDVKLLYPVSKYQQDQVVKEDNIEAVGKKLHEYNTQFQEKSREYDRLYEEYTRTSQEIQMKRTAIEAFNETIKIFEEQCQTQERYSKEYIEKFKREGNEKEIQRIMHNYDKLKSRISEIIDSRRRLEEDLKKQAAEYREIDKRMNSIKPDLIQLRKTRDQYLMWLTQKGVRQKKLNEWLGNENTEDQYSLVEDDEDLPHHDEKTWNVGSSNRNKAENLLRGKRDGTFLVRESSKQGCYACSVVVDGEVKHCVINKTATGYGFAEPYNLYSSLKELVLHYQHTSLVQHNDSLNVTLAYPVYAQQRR

Row | Structure (SMILES) | IC50 [nM]
1 | C[C@H](/C=C\S(C)(=O)=O)NC(=O)C1(F)CCN(S(=O)(=O)c2ccc(OC3CC3)cc2-c2ccccc2Cl)CC1 [Compound 101, (R,Z)-1-((2′-chloro-5-cyclopropoxy-[1,1′-biphenyl]-2-yl)sulfonyl)-4-fluoro-N-(4-(methylsulfonyl)but-3-en-2-yl)piperidine-4-carboxamide] | 860
2 | N#C/C=C/CNC(=O)C1(F)CCN(S(=O)(=O)c2cnc(Br)cc2-c2ccccc2Cl)CC1 [Compound 278, (E)-1-((6-bromo-4-(2-chlorophenyl)pyridin-3-yl)sulfonyl)-N-(3-cyanoallyl)-4-fluoropiperidine-4-carboxamide] | 240
3 | CS(=O)(=O)/C=C/CNC(=O)C1(F)CCN(S(=O)(=O)c2ccc(Cl)cc2-c2ccccc2)CC1 [Compound 37, (E)-1-((5-chloro-[1,1′-biphenyl]-2-yl)sulfonyl)-4-fluoro-N-(3-(methylsulfonyl)allyl)piperidine-4-carboxamide] | 297
4 | C[C@H](/C=C\S(C)(=O)=O)NC(=O)C1(F)CCN(S(=O)(=O)c2ccc(O)cc2-c2ccccc2Cl)CC1 [Compound 104, (R,Z)-1-((2′-chloro-5-hydroxy-[1,1′-biphenyl]-2-yl)sulfonyl)-4-fluoro-N-(4-(methylsulfonyl)but-3-en-2-yl)piperidine-4-carboxamide] | 620
5 | COc1cc(-c2ccccc2Cl)c(S(=O)(=O)N2CCC(F)(C(=O)NC/C=C\C#N)CC2)cn1 [Compound 194, (Z)-1-((4-(2-chlorophenyl)-6-methoxypyridin-3-yl)sulfonyl)-N-(3-cyanoallyl)-4-fluoropiperidine-4-carboxamide] | 270
6 | C[C@H](/C=C\S(C)(=O)=O)NC(=O)C1(F)CCN(C(=O)[C@@H]2CN(C(=O)OC(C)(C)C)C[C@@H]2c2ccccc2Cl)CC1 (racemic) [Compound 158, tert-butyl(3RS,4RS)-3-(2-chlorophenyl)-4-(4-fluoro-4-(((R,Z)-4-(methylsulfonyl)but-3-en-2-yl)carbamoyl)piperidine-1-carbonyl)pyrrolidine-1-carboxylate] | 895
7 | C[C@@H](/C=C\S(C)(=O)=O)NC(=O)C1(F)CCN(S(=O)(=O)c2ccc(Cl)cc2-c2cccc(OCc3ccccc3)c2)CC1 [Compound 268, (S,Z)-1-((3′-(benzyloxy)-5-chloro-[1,1′-biphenyl]-2-yl)sulfonyl)-4-fluoro-N-(4-(methylsulfonyl)but-3-en-2-yl)piperidine-4-carboxamide] | 356
8 | COc1cccc(-c2cc(Br)ccc2S(=O)(=O)N2CCC(F)(C(=O)N[C@@H](C)/C=C\S(C)(=O)=O)CC2)c1 [Compound 61, (S,Z)-1-((5-bromo-3′-methoxy-[1,1′-biphenyl]-2-yl)sulfonyl)-4-fluoro-N-(4-(methylsulfonyl)but-3-en-2-yl)piperidine-4-carboxamide] | 66.7
9 | C=Cc1ccc(S(=O)(=O)N2CCC(F)(C(=O)N[C@H](C)/C=C\S(C)(=O)=O)CC2)c(-c2ccccc2C)c1 [Compound 108, (R,Z)-4-fluoro-1-((2′-methyl-5-vinyl-[1,1′-biphenyl]-2-yl)sulfonyl)-N-(4-(methylsulfonyl)but-3-en-2-yl)piperidine-4-carboxamide] | 120
10 | Cc1ccccc1-c1cc(N2CCCC2)ccc1S(=O)(=O)N1CCC(F)(C(=O)N[C@H](C)/C=C\S(C)(=O)=O)CC1 [Compound 120, (R,Z)-4-fluoro-1-((2′-methyl-5-(pyrrolidin-1-yl)-[1,1′-biphenyl]-2-yl)sulfonyl)-N-(4-(methylsulfonyl)but-3-en-2-yl)piperidine-4-carboxamide] | 250
11 | COc1ccc(S(=O)(=O)N2CCC(F)(C(=O)NC/C=C/S(C)(=O)=O)CC2)c(-c2cccc(Cl)c2)c1 [Compound 41, (E)-1-((3′-chloro-5-methoxy-[1,1′-biphenyl]-2-yl)sulfonyl)-4-fluoro-N-(3-(methylsulfonyl)allyl)piperidine-4-carboxamide] | 290
12 | Cc1ccccc1-c1cc(OC(C)C)ccc1S(=O)(=O)N1CCC(F)(C(=O)N[C@H](C)/C=C\S(C)(=O)=O)CC1 [Compound 103, (R,Z)-4-fluoro-1-((5-isopropoxy-2′-methyl-[1,1′-biphenyl]-2-yl)sulfonyl)-N-(4-(methylsulfonyl)but-3-en-2-yl)piperidine-4-carboxamide] | 830
13 | COc1ccc(S(=O)(=O)N2CCC(F)(C(=O)N[C@@H](C)/C=C\S(C)(=O)=O)CC2)c(-c2ccccc2C)c1 [Compound 12, (S,Z)-4-fluoro-1-((5-methoxy-2′-methyl-[1,1′-biphenyl]-2-yl)sulfonyl)-N-(4-(methylsulfonyl)but-3-en-2-yl)piperidine-4-carboxamide] | 66
14 | C[C@@H](/C=C\S(C)(=O)=O)NC(=O)C1(F)CCN(S(=O)(=O)c2ccc(N(C)C)cc2-c2ccccc2Cl)CC1 [Compound 89, (S,Z)-1-((2′-chloro-5-(dimethylamino)-[1,1′-biphenyl]-2-yl)sulfonyl)-4-fluoro-N-(4-(methylsulfonyl)but-3-en-2-yl)piperidine-4-carboxamide] | 47
15 | CC(C)Oc1ccc(S(=O)(=O)N2CCC(F)(C(=O)N[C@H](C)/C=C\S(C)(=O)=O)CC2)c(-c2ccccc2Cl)c1 [Compound 105, (R,Z)-1-((2′-chloro-5-isopropoxy-[1,1′-biphenyl]-2-yl)sulfonyl)-4-fluoro-N-(4-(methylsulfonyl)but-3-en-2-yl)piperidine-4-carboxamide] | 780
16 | COc1cccc(-c2cc(Cl)ccc2S(=O)(=O)N2CCC(F)(C(=O)N[C@H](C)/C=C/S(C)(=O)=O)CC2)c1 [Compound 80, (R,E)-1-((5-chloro-3′-methoxy-[1,1′-biphenyl]-2-yl)sulfonyl)-4-fluoro-N-(4-(methylsulfonyl)but-3-en-2-yl)piperidine-4-carboxamide] | 510
17 | COc1ccc(S(=O)(=O)N2CCC(F)(C(=O)NC/C=C\C#N)CC2)c(-c2ccccc2Cl)c1 [Compound 71, (Z)-1-((2′-chloro-5-methoxy-[1,1′-biphenyl]-2-yl)sulfonyl)-N-(3-cyanoallyl)-4-fluoropiperidine-4-carboxamide] | 160
18 | COc1cccc(-c2cc(Cl)ncc2S(=O)(=O)N2CCC(F)(C(=O)N[C@@H](C)/C=C\S(C)(=O)=O)CC2)c1 [Compound 270, (S,Z)-1-((6-chloro-4-(3-methoxyphenyl)pyridin-3-yl)sulfonyl)-4-fluoro-N-(4-(methylsulfonyl)but-3-en-2-yl)piperidine-4-carboxamide] | 550
19 | COc1cc(-c2ccccc2Cl)c(S(=O)(=O)N2CCC(F)(C(=O)NC/C=C/S(C)(=O)=O)CC2)cn1 [Compound 188, (E)-1-((4-(2-chlorophenyl)-6-methoxypyridin-3-yl)sulfonyl)-4-fluoro-N-(3-(methylsulfonyl)allyl)piperidine-4-carboxamide] | 189
20 | N#C/C=C/CNC(=O)C1(F)CCN(S(=O)(=O)c2ccc(Cl)cc2-c2ccccc2Cl)CC1 [Compound 69, (E)-N-(3-cyanoallyl)-1-((2′,5-dichloro-[1,1′-biphenyl]-2-yl)sulfonyl)-4-fluoropiperidine-4-carboxamide] | 520
21 | COc1cccc(-c2cc(OC)ccc2S(=O)(=O)N2CCC(F)(C(=O)NC/C=C/S(C)(=O)=O)CC2)c1 [Compound 39, (E)-1-((3′,5-dimethoxy-[1,1′-biphenyl]-2-yl)sulfonyl)-4-fluoro-N-(3-(methylsulfonyl)allyl)piperidine-4-carboxamide] | 716
22 | CN(C)c1ccc(S(=O)(=O)N2CCC(F)(C(=O)NC/C=C/S(C)(=O)=O)CC2)c(-c2ccccc2)c1 [Compound 94, (E)-1-((5-(dimethylamino)-[1,1′-biphenyl]-2-yl)sulfonyl)-4-fluoro-N-(3-(methylsulfonyl)allyl)piperidine-4-carboxamide] | 190
23 | CS(=O)(=O)/C=C/CNC(=O)C1(F)CCN(S(=O)(=O)c2ccc(Cl)cc2-c2cccc(Cl)c2)CC1 [Compound 45, (E)-1-((3′,5-dichloro-[1,1′-biphenyl]-2-yl)sulfonyl)-4-fluoro-N-(3-(methylsulfonyl)allyl)piperidine-4-carboxamide] | 420
24 | COc1cccc(-c2cc(N(C)C)ccc2S(=O)(=O)N2CCC(F)(C(=O)NC/C=C/S(C)(=O)=O)CC2)c1 [Compound 96, (E)-1-((5-(dimethylamino)-3′-methoxy-[1,1′-biphenyl]-2-yl)sulfonyl)-4-fluoro-N-(3-(methylsulfonyl)allyl)piperidine-4-carboxamide] | 410
25 | COc1ccc(S(=O)(=O)N2CCC(F)(C(=O)NC/C=C/S(C)(=O)=O)CC2)c(-c2ccccc2C)c1 [Compound 44, (E)-4-fluoro-1-((5-methoxy-2′-methyl-[1,1′-biphenyl]-2-yl)sulfonyl)-N-(3-(methylsulfonyl)allyl)piperidine-4-carboxamide] | 313

From patent publication US20250026721A1, “COMPOUNDS AND METHODS FOR MODULATING RAS-PI3K” (Vividion Therapeutics, Inc., priority 2023, published 2025)
